Active and inactive are the calls of the source. The rule behind the calls is not given here. Starred links: 1 amine or outer side, 2 acyl side, 3 side chain; linkers in the order of their positions; H or OH if unused. Positions of bridges follow the written chain, without caps; N, C: chain ends. Residues, ends and D or L forms follow the SMILES beside them. *: point of attachment. X2 = CC(C)[C@@H](CNC(N)=O)NC(=O)NC[C@H](C)NC(=O)NC[C@H](CSCC(=O)NCCNC(=O)C[*:1])N[*:2]; X1 = CC(C)[C@@H](CNC(N)=O)NC(=O)NC[C@H](C)NC(=O)NC[C@H](CSCCCCCC[*:1])N[*:2]; X6 = CC(C)[C@@H](CNC(N)=O)NC(=O)NC[C@H](CSCCCCCC[*:1])NC(=O)NC[C@H](C)N[*:2]; X5 = CC(C)[C@@H](CNC(N)=O)NC(=O)NC[C@H](C)NC(=O)NC[C@H](CSCCC[*:1])N[*:2]; X8 = C[C@@H](CNC(N)=O)NC(=O)NC[C@H](C)NC(=O)NC[C@H](CSC/C=C/C[*:1])N[*:2]; X3 = CC(C)[C@@H](CNC(N)=O)NC(=O)NC[C@H](C)NC(=O)NC[C@H](C)N*; NH(CH2CH2O)2(CH2)6Cl = ClCCCCCCOCCOCCN*; Suc = O=C(CCC(=O)[*:2])[*:1]; X11 = C(CCC[*:2])CC[*:1]; CH2CH2 = C(C[*:2])[*:1]; X4 = C(C[*:1])C[*:2]
What was measured:
[1] = target: Tumour suppressor protein p53/Mdm4 (Homo sapiens, UniProt O15151); experiment: PROTAC activity at human DMX/p53 extracted from Escherichia coli interaction by measuring inhibition of interaction by time-resolved fluorescence energy transfer (TRFRET) detection method; type: protein assay
Chain of Tumour suppressor protein p53/Mdm4 (P04637 whole entry): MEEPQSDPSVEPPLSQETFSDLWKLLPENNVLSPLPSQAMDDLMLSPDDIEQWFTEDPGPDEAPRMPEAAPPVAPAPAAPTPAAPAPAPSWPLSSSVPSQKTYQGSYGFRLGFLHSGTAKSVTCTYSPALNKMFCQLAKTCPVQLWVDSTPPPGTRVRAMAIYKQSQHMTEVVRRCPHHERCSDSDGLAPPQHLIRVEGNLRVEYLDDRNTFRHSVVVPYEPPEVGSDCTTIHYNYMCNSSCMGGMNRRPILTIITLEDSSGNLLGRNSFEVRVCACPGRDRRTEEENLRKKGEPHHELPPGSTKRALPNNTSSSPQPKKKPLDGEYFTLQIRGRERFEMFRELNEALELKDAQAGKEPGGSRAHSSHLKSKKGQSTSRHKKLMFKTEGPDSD
Chain of Tumour suppressor protein p53/Mdm4 (O15151 whole entry): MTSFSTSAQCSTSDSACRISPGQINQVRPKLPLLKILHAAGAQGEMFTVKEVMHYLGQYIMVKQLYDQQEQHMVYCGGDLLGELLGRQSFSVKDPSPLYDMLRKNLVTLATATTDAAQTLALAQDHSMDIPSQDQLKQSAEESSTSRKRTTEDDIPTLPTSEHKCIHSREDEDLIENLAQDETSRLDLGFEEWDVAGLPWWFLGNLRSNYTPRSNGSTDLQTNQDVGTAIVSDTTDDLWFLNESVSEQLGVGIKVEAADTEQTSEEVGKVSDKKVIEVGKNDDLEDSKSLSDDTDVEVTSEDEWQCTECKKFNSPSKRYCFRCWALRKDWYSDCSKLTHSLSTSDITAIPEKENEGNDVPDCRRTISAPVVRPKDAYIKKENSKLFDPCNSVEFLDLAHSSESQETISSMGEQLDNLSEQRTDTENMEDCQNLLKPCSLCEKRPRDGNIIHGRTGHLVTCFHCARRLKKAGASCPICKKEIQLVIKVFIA

[2] = target: Tumour suppressor protein p53/Mdm4 (Homo sapiens) (UniProt P04637+O15151); experiment: PROTAC activity at human DMX/p53 extracted from Escherichia coli interaction at 100 nM by measuring inhibition of interaction by time-resolved fluorescence energy transfer (TRFRET) detection method relative to control; type: protein assay
Chain of Tumour suppressor protein p53/Mdm4 (Homo sapiens) (O15151 whole entry, looked up): as the sequence (O15151 whole entry) above
Chain of Tumour suppressor protein p53/Mdm4 (Homo sapiens) (P04637 whole entry, looked up): as the sequence (P04637 whole entry) above

[3] = PROTAC activity at human DM2/p53 extracted from Escherichia coli interaction by measuring inhibition of interaction by time-resolved fluorescence energy transfer (TRFRET) detection method
HCT-116 [4] = experiment: Cytotoxicity against human HCT-116 cells assessed as cell viability at 100 uM by MTS cell viability assay; type: functional, cell-based
[5] = target: Tumour suppressor p53/oncoprotein Mdm2 (Homo sapiens) (UniProt P04637+Q00987); experiment: PROTAC activity at human MDM2/p53 extracted from Escherichia coli interaction by measuring inhibition of interaction at 100 nM by time-resolved fluorescence energy transfer (TRFRET) detection method relative to control; type: protein assay
Chain of Tumour suppressor p53/oncoprotein Mdm2 (Homo sapiens) (P04637 whole entry, looked up): as the sequence (P04637 whole entry) above
Chain of Tumour suppressor p53/oncoprotein Mdm2 (Homo sapiens) (Q00987 whole entry, looked up): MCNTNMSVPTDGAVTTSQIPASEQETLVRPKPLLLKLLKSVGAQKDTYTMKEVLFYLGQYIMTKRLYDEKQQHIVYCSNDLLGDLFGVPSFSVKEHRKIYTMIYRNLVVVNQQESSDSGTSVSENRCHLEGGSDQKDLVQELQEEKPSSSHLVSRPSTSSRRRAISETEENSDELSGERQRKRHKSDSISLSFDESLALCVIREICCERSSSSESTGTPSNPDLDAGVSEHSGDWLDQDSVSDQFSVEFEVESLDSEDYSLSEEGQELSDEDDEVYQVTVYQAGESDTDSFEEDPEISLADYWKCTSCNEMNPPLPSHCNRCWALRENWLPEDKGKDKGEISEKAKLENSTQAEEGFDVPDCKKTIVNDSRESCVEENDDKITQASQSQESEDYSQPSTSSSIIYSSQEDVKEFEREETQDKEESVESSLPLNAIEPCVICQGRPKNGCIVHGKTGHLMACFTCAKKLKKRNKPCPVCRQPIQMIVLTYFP

HCT-116 [6] = experiment: Effect on increase in […] RNA level in human HCT-116 cells at 10 uM measured after 6 hrs by RT-qPCR analysis; type: functional, cell-based
HCT-116 [7] = experiment: Effect on increase in p21 RNA level in human HCT-116 cells at 10 uM measured after 6 hrs by RT-qPCR analysis; type: functional, cell-based
[8] = Permeability in human HeLa cells transfected with Halo-GFP-Mito assessed as accumulation in cytosol measured after 4 hrs incubation by chloroalkane penetration assay; type: ADME, subcellular
HCT-116 [9] = experiment: Cytotoxicity against human HCT116 cells expressing wild type p53 and overexpressing human DM2 assessed as cell viability measured after 72 hrs incubation by MTS cell viability assay; type: functional, cell-based
MCF7 = experiment: Cytotoxicity against human MCF7 cells expressing wild type p53 and overexpressing human DMX assessed as cell viability measured after 72 hrs incubation by MTS cell viability assay; type: functional, cell-based

Row | Compound | IC50 [1] [µM] | inhibition [2] [%] | IC50 [3] [µM] | inhibition [5] [%] | further results
1 | CC(C)[C@@H](CNC(N)=O)NC(=O)NC[C@H](C)NC(=O)NC[C@@H]1CSCC(=O)NCCNC(=O)CSC[C@H](NC(=O)[C@H](Cc2ccccc2)NC(=O)[C@H](CO)NC(=O)[C@@H](N)[C@@H](C)O)C(=O)N[C@@H](CCC(=O)O)C(=O)N[C@@H](Cc2ccc(O)cc2)C(=O)N[C@@H](Cc2c[nH]c3ccccc23)C(=O)N1 (H-TSFCEYW; linker 4-C via X2) | 28 | 91 | 0.0101 | 99 | Activity (HCT-116 [4]): inactive
2 | COc1ccc(C2=N[C@@H](c3ccc(Cl)cc3)[C@@H](c3ccc(Cl)cc3)N2C(=O)N2CCNC(=O)C2)c(OC(C)C)c1 |  |  |  |  | Activity (HCT-116 [6]): Active; Activity (HCT-116 [7]): Active
3 | CC(C)[C@@H](CNC(N)=O)NC(=O)NC[C@@H]1CSCCCCCCSC[C@H](NC(=O)[C@H](C)NC(=O)[C@H](Cc2ccccc2)NC(=O)[C@H](CO)NC(=O)[C@@H](N)[C@@H](C)O)C(=O)N[C@@H](Cc2ccc(O)cc2)C(=O)N[C@@H](Cc2c[nH]c3ccccc23)C(=O)N[C@@H](C)CNC(=O)N1 (H-TSFACYW; linker 5-C via X6) | 196 | 11 | 0.0331 | 86 | 
4 | CC(C)[C@@H](CNC(N)=O)NC(=O)NC[C@H](C)NC(=O)NC[C@@H]1CSCC(=O)NCCNC(=O)CSC[C@H](NC(=O)[C@H](Cc2ccccc2)NC(=O)[C@H](CO)NC(=O)[C@H](CCCCN)NC(=O)[C@H](CCCNC(=N)N)NC(=O)[C@H](CCCNC(=N)N)NC(=O)[C@H](CCCNC(=N)N)NC(=O)CCC(=O)NCCOCCOCCCCCCCl)C(=O)N[C@@H](CCC(=O)O)C(=O)N[C@@H](Cc2ccc(O)cc2)C(=O)N[C@@H](Cc2c[nH]c3ccccc23)C(=O)N1 ({NH(CH2CH2O)2(CH2)6Cl-Suc}-RRRKSFCEYW; linker 7-C via X2) |  |  |  |  | EC50 [8]: 3.3 µM
5 | CC(C)[C@@H](CNC(N)=O)NC(=O)NC[C@H](C)NC(=O)NC[C@@H]1CSCCCCCCSC[C@H](NC(=O)[C@H](Cc2ccccc2)NC(=O)[C@H](CO)NC(=O)[C@H](CCCCN)NC(=O)[C@H](CCCNC(=N)N)NC(=O)[C@H](CCCNC(=N)N)NC(=O)[C@H](CCCNC(=N)N)NC(=O)CCC(=O)NCCOCCOCCCCCCCl)C(=O)N[C@@H](CCC(=O)O)C(=O)N[C@@H](Cc2ccc(O)cc2)C(=O)N[C@@H](Cc2c[nH]c3ccccc23)C(=O)N1 ({NH(CH2CH2O)2(CH2)6Cl-Suc}-RRRKSFCEYW; linker 7-C via X1) |  |  |  |  | EC50 [8]: 1.9 µM
6 | CC(C)[C@@H](CNC(N)=O)NC(=O)NC[C@H](C)NC(=O)NC[C@@H]1CSCCCCCCSC[C@H](NC(=O)[C@H](Cc2ccccc2)NC(=O)[C@@H](NC(=O)[C@H](CCCCN)NC(=O)CCC(=O)NCCOCCOCCCCCCCl)[C@@H](C)O)C(=O)N[C@@H](CCC(=O)O)C(=O)N[C@@H](Cc2ccc(O)cc2)C(=O)N[C@@H](Cc2c[nH]c3ccccc23)C(=O)N1 ({NH(CH2CH2O)2(CH2)6Cl-Suc}-KTFCEYW; linker 4-C via X1) |  |  |  |  | EC50 [8]: 0.51 µM
7 | CC(C)[C@@H](CNC(N)=O)NC(=O)NC[C@H](C)NC(=O)NC[C@@H]1CSCCCSC[C@H](NC(=O)[C@H](Cc2ccccc2)NC(=O)[C@H](CO)NC(=O)[C@@H](N)[C@@H](C)O)C(=O)N[C@@H](CCC(=O)O)C(=O)N[C@@H](Cc2ccc(O)cc2)C(=O)N[C@@H](Cc2c[nH]c3ccccc23)C(=O)N1 (H-TSFCEYW; linker 4-C via X5) | 108 | 50 | 0.0256 | 86 | 
8 | CC(C)[C@@H](CNC(N)=O)NC(=O)NC[C@H](C)NC(=O)NC[C@H](C)NC(=O)[C@H](Cc1c[nH]c2ccccc12)NC(=O)[C@H](Cc1ccc(O)cc1)NC(=O)[C@H](CCC(=O)O)NC(=O)[C@H](C)NC(=O)[C@H](Cc1ccccc1)NC(=O)[C@@H](NC(=O)[C@H](CCCCN)NC(=O)CCC(=O)NCCOCCOCCCCCCCl)[C@@H](C)O ({NH(CH2CH2O)2(CH2)6Cl-Suc}-KTFAEYW-X3) |  |  |  |  | EC50 [8]: 1.95 µM
9 | N[C@@H](Cc1c[nH]c2ccccc12)C(=O)O [TRYPTOPHAN] |  |  |  |  | EC50 [8]: 0.087 µM
10 | CC(C)[C@@H](CNC(N)=O)NC(=O)NC[C@H](C)NC(=O)NC[C@@H]1CSCCCCCCSC[C@H](NC(=O)[C@H](Cc2ccccc2)NC(=O)[C@H](CO)NC(=O)[C@@H](N)[C@@H](C)O)C(=O)N[C@@H](C)C(=O)N[C@@H](Cc2ccc(O)cc2)C(=O)N[C@@H](Cc2c[nH]c3ccccc23)C(=O)N1 (H-TSFCAYW; linker 4-C via X1) |  | -3 |  | 42 | 
11 | CC(C)[C@@H](CNC(N)=O)NC(=O)NC[C@H](C)NC(=O)NC[C@H](C)NC(=O)[C@H](Cc1c[nH]c2ccccc12)NC(=O)[C@H](Cc1ccc(O)cc1)NC(=O)[C@@H]1CSSC[C@H](N)C(=O)N[C@@H](CO)C(=O)N[C@@H](Cc2ccccc2)C(=O)N[C@@H](C)C(=O)N1 (H-CSFACYW-X3; disulfide 1-5) |  | -4 |  | 20 | 
12 | C[C@@H](CNC(N)=O)NC(=O)NC[C@H](C)NC(=O)NC[C@@H]1CSC/C=C/CSC[C@H](NC(=O)[C@H](Cc2ccccc2)NC(=O)[C@H](CO)NC(=O)[C@@H](N)[C@@H](C)O)C(=O)N[C@@H](CCC(=O)O)C(=O)N[C@@H](Cc2ccc(O)cc2)C(=O)N[C@@H](Cc2c[nH]c3ccccc23)C(=O)N1 (H-TSFCEYW; linker 4-C via X8) |  | 57 |  | 82 | 

Now from value to compound, other results behind:

Row | IC50 [1] [µM] | inhibition [2] [%] | IC50 [3] [µM] | inhibition [5] [%] | Compound | further results
13 | 10.3 | 98 | 0.0036 | 99 | CC(C)[C@@H](CNC(N)=O)NC(=O)NC[C@H](C)NC(=O)NC[C@@H]1CSCC(=O)NCCNC(=O)CSC[C@H](NC(=O)[C@H](Cc2ccccc2)NC(=O)[C@H](CO)NC(=O)[C@H](CCCCN)NC(=O)[C@H](CCCNC(=N)N)NC(=O)[C@H](CCCNC(=N)N)NC(=O)[C@@H](N)CCCNC(=N)N)C(=O)N[C@@H](CCC(=O)O)C(=O)N[C@@H](Cc2ccc(O)cc2)C(=O)N[C@@H](Cc2c[nH]c3ccccc23)C(=O)N1 (H-RRRKSFCEYW; linker 7-C via X2) | Activity (HCT-116 [9]): Not active; Compound Was Poorly Active Even At High Concentration; Activity (MCF7): inactive
14 | 127 | 52 | 0.0193 | 97 | CC(C)[C@@H](CNC(N)=O)NC(=O)NC[C@H](C)NC(=O)NC[C@@H]1CSCCCCCCSC[C@H](NC(=O)[C@H](Cc2ccccc2)NC(=O)[C@H](CO)NC(=O)[C@@H](N)[C@@H](C)O)C(=O)N[C@@H](CCC(=O)O)C(=O)N[C@@H](Cc2ccc(O)cc2)C(=O)N[C@@H](Cc2c[nH]c3ccccc23)C(=O)N1 (H-TSFCEYW; linker 4-C via X1) | Activity (HCT-116 [9]): inactive; Activity (HCT-116 [4]): inactive; Activity (MCF7): inactive
15 | 23.8 |  | 0.0057 |  | CC(=O)N[C@@H](CCCCN)C(=O)N[C@H](C(=O)N[C@@H](Cc1ccccc1)C(=O)N[C@@H](C)C(=O)N[C@@H](CCC(=O)O)C(=O)N[C@@H](Cc1ccc(O)cc1)C(=O)N[C@@H](Cc1c[nH]c2ccccc12)C(=O)N[C@@H](C)CNC(=O)N[C@@H](C)CNC(=O)N[C@H](CNC(N)=O)C(C)C)[C@@H](C)O (Ac-KTFAEYW-X3) | 
16 | 82 | 61 | 0.0238 | 97 | CC(C)[C@@H](CNC(N)=O)NC(=O)NC[C@H](C)NC(=O)NC[C@H](C)NC(=O)[C@H](Cc1c[nH]c2ccccc12)NC(=O)[C@H](Cc1ccc(O)cc1)NC(=O)[C@H](CCC(=O)O)NC(=O)[C@H](C)NC(=O)[C@H](Cc1ccccc1)NC(=O)[C@H](CO)NC(=O)[C@@H](N)[C@@H](C)O (H-TSFAEYW-X3) | 
17 | 80 | 68 | 0.0234 | 98 | CC(C)[C@@H](CNC(N)=O)NC(=O)NC[C@H](C)NC(=O)NC[C@H](C)NC(=O)[C@H](Cc1c[nH]c2ccccc12)NC(=O)[C@H](Cc1ccc(O)cc1)NC(=O)[C@@H]1CSCCCSC[C@H](N)C(=O)N[C@@H](CO)C(=O)N[C@@H](Cc2ccccc2)C(=O)N[C@@H](C)C(=O)N1 (H-CSFACYW-X3; linker 1-5 via X4) | 
18 |  | 14 |  | 36 | CC(C)[C@@H](CNC(N)=O)NC(=O)NC[C@H](C)NC(=O)NC[C@H](C)NC(=O)[C@H](Cc1c[nH]c2ccccc12)NC(=O)[C@H](Cc1ccc(O)cc1)NC(=O)[C@@H]1CSCCCCCCSC[C@H](NC(=O)[C@@H](N)[C@@H](C)O)C(=O)N[C@@H](Cc2ccccc2)C(=O)N[C@@H](C)C(=O)N1 (H-TCFACYW-X3; linker 2-5 via X11) | 
19 |  | 39 |  | 47 | CC(C)[C@@H](CNC(N)=O)NC(=O)NC[C@H](C)NC(=O)NC[C@H](C)NC(=O)[C@H](Cc1c[nH]c2ccccc12)NC(=O)[C@H](Cc1ccc(O)cc1)NC(=O)[C@@H]1CSCCSC[C@H](N)C(=O)N[C@@H](CO)C(=O)N[C@@H](Cc2ccccc2)C(=O)N[C@@H](C)C(=O)N1 (H-CSFACYW-X3; linker 1-5 via CH2CH2) | 
20 | 763 | 20 | 0.109 | 41 | CC(C)[C@@H](CNC(N)=O)NC(=O)NC[C@H](C)NC(=O)NC[C@H](C)NC(=O)[C@H](Cc1c[nH]c2ccccc12)NC(=O)[C@H](Cc1ccc(O)cc1)NC(=O)[C@@H]1CSCCCSC[C@H](NC(=O)[C@@H](N)[C@@H](C)O)C(=O)N[C@@H](Cc2ccccc2)C(=O)N[C@@H](C)C(=O)N1 (H-TCFACYW-X3; linker 2-5 via X4) | 

From ChEMBL document CHEMBL6087461, “Cell-Permeable Peptide Inhibitors of the p53-hDM2 Interaction via Foldamer Helix Mimicry and Bis-Thioether Stapling” (J Med Chem, 2025)
